Measurements reported in patent EP2272817A1, “PAI-1 INHIBITOR” (Institute of Medicinal Molecular Design, Inc., priority 2008, dated 2009).
Read-outs that look alike come from different tables or passages of the source.

What was measured:
recombinant rat PAI-1 = target: T1, recombinant rat PAI-1 (Rattus norvegicus, UniProt P20961); experiment: biochemical; settings: read-out: Inhibition Rate of PAI-1 Activity (%)
T1 sequence (P20961 24-402): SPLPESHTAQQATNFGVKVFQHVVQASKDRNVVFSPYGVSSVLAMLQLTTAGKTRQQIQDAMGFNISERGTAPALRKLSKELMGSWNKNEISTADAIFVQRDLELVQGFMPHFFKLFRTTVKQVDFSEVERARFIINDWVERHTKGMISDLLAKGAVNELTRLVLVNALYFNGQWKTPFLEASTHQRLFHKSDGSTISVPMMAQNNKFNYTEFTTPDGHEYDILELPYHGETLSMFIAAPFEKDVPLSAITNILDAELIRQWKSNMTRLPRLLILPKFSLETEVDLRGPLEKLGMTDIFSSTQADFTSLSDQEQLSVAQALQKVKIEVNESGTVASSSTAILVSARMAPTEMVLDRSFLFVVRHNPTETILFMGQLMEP

recombinant human PAI-1 [1] = target: T2, recombinant human PAI-1 (Homo sapiens, UniProt P05121); experiment: Test Example 2: Human PAI-1 Inhibitory Activity (pH 7.4 HEPES buffer, 10 minutes incubation with two-chain tPA); assay type: biochemical; design: purchased Molecular Innovations, Inc; settings: read-out: Inhibition Rate of PAI-1 Activity (%)
Method: 0.1 M HEPES, 0.1 M NaCl. 1 mM EDTA. 0.1 % Polyethylene glycol 8,000 (Hampton Research Corporation),
2 mM Dimethyldecylphoshine oxide [Apo-10] (Fluka Corporation)

recombinant human PAI-1 [2] = target: T2, recombinant human PAI-1; experiment: biochemical
Rat AV Shunt Model = experiment: Test Example 5: Anti-thrombotic Activity (Rat AV Shunt Model), thrombus weight; assay type: in vivo, Crlj: CD (SD) rats; settings: orally for 4 days, male rats, n=5, average ± S.E., vehicle 72.7±2.7
Method: AV shunt model using 7-week old male Crlj: CD (SD) rats were prepared, and anti thrombotic activities when the compounds according to the present invention were administered orally were examined.
Required amount of the test compounds were weighed and suspended by adding 0.5 % CMC (carboxymethylcellulose)-Na solution little by little, and the solutions (10 mg/kg or 30 mg/kg solution) were prepared so that their final concentration became 2 mg/ml or 6 mg/ml using a graduated cylinder. 5 ml was prepared for 1 course.
To 7-week old Crlj: CD (SD) male rats, 5 ml/kg of vehicle (0.5 % CMC-Na solution) or 5 ml/kg of the administering solution of the test compound (10 mg/kg or 30 mg/kg) were administered orally for 4 days. The administration on the 4th day was carried out about 1 hour before the following perfusion start.
On the connected part where the silk thread was through, parafilm was wrapped around to avoid blood leakage. Rats were anesthetized with pentobarbital (50 mg/kg; intraperitoneally). Saline was filled in the above catheter, and each of the ends of the catheter was inserted in right carotid artery and […], respectively, and blood was circulated. 30 minutes later, the catheter was pinched with forceps to stop blood flow, and tube parts where the silk thread was through were cut and removed. The silk thread was carefully removed from the tubes, remaining wet weight was weighed after removing the liquid phase with filter paper, and further subtraction of the weight of the silk thread, gave the thrombus weight.
For the thrombus weight in each group, an average vale ± standard error (S.E.) was calculated. For the significance test between the vehicle administered group and the compound according to the present invention administered group, Dunnett's multiple comparison was carried out (significance level 5 %). For the test, the SAS System Release 8.2 (TS2MO) for Windows (Registered Trademark) (SAS Institute Inc.) and its coorperative system EXSAS Ver. 7.10 (Arm Systex Co. Ltd.) were employed.

recombinant human PAI-1 [3] = target: T2, recombinant human PAI-1; experiment: Test Example 4: Human PAI-1 Inhibitory Activity (amount of PAI-1 bound to plate-coated one-chain tPA, ELISA); assay type: biochemical; design: purchased Molecular Innovations, Inc; settings: human PAI-1 bound to tPA, read-out: Inhibition Rate of PAI-1 Activity (%); for inhibition at 0.3 µM: Compound Concentration 0.3µM; for inhibition at 1 µM: Compound Concentration 1µM; for inhibition at 3 µM: Compound Concentration 3µM
Procedure, shortened: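 Compound (final 0.1 to 3.0 µM, 0.2% DMSO) preincubated 15 min on ice with recombinant human PAI-1 (50 ng/ml) in phosphate buffer pH 6.6, then 60 min at room temperature on one-chain tPA-coated plates. Bound PAI-1 detected by anti-PAI-1 antibody, AP-labelled secondary and p-nitrophenyl phosphate at 405 nm; quantified against PAI-1 standard curve, inhibition relative to compound-free PAI-1.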

T2 sequence (P05121 24-402): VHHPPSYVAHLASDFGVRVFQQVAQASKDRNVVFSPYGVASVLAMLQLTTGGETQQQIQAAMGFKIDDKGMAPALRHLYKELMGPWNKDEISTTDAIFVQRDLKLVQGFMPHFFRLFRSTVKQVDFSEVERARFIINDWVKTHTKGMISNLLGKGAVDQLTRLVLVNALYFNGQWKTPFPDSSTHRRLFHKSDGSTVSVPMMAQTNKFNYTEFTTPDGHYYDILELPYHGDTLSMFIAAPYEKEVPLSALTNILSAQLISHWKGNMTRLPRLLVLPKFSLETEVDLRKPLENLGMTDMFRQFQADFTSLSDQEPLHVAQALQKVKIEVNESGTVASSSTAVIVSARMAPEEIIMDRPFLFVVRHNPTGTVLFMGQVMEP

SMILES | inhibition at 0.3 µM (recombinant rat PAI-1) [%] | inhibition at 1 µM (recombinant rat PAI-1) [%] | inhibition at 3 µM (recombinant rat PAI-1) [%] | inhibition at 10 µM (recombinant rat PAI-1) [%] | inhibition at 0.1 µM (recombinant human PAI-1 [1]) [%] | inhibition at 0.3 µM (recombinant human PAI-1 [1]) [%] | inhibition at 1 µM (recombinant human PAI-1 [1]) [%] | inhibition at 3 µM (recombinant human PAI-1 [1]) [%] | inhibition at 5 µM (recombinant human PAI-1 [2]; read-out: Inhibition Rate of PAI Activity (%), Compound Concentration 5µM) [%] | inhibition at 10 µM (recombinant human PAI-1 [2]; read-out: Inhibition Rate of PAI Activity (%), Compound Concentration 10µM) [%] | Thrombus Weight (Rat AV Shunt Model; Dose 10 mg/kg/day) [mg] | inhibition at 0.3 µM (recombinant human PAI-1 [3]) [%] | inhibition at 1 µM (recombinant human PAI-1 [3]) [%] | inhibition at 3 µM (recombinant human PAI-1 [3]) [%] | Thrombus Weight (Rat AV Shunt Model; Dose 30 mg/kg/day) [mg] | inhibition at 5 µM (recombinant human PAI-1 [2]; read-out: Inhibition Rate of PAI-1 Activity (%), Compound Concentration 5µM) [%] | inhibition at 10 µM (recombinant human PAI-1 [2]; read-out: Inhibition Rate of PAI-1 Activity (%), Compound Concentration 10µM) [%]
CC(C)(C)c1ccc(COc2ccc(-c3ccc(OC(F)(F)F)cc3)cc2CCC(=O)O)cc1 [Compound 5] | 5 | 15 | 52 | 93 | 2 | 13 | 34 | 90 | 87 | 95 | 57.5 ± 5.0 | 9 | 23 | 67 |  |  | 
CN(C(=O)C(=O)O)c1cc(-c2ccc(OC(F)(F)F)cc2)ccc1OCc1ccc(C(C)(C)C)cc1 [Compound 17] |  |  |  |  |  |  |  |  |  |  |  |  |  |  | 60.4 ± 3.8 |  | 
CC(C)(C)c1ccc(CN(C(=O)C(=O)O)c2ccc(-c3ccc(OC(F)(F)F)cc3)cc2)cc1 [Compound 129] | 2 | 14 | 46 | 90 | 1 | 3 | 19 | 86 |  |  | 56.7 ± 3.8 | 5 | 15 | 19 |  | 75 | 95
